{"source": "patent US20160030628A1", "about": "“TREATMENT FOR BILE LEAKAGE” (3-D MATRIX, LTD, priority 2013, published 2016)", "key": {"[1]": {"tested_on": "bile leakage from punctured gall bladder", "assay": "bile leakage occlusion in a porcine gall bladder needle puncture model", "type": "in vivo", "details": "2.5% w/v RADA16", "procedure": "(§1) The objective of this study was to evaluate a self-assembling peptide solution (RADA16 in the form of PuraMatrix™ peptide hydrogel by 3-D Matrix, LTD.) as a bile leakage occlusion material in a porcine model. A histopathology assessment was also performed.\nOn the day of testing, an animal was sedated and prepared for surgery. A bile leakage model was prepared by puncturing needle punctures, using a 20G injection needle in the gall bladder of the test subject, as shown in FIG. 1A.\nSubsequent to applying the self-assembling peptide solution, a bile leakage occlusion was confirmed at 1 minute, 20 seconds, as shown in FIG. 1D.\nIt was determined that 0.5 mL of the peptide solution was used to achieve the bile leakage occlusion of the needle puncture in the gallbladder."}, "[2]": {"tested_on": "gallbladder bile leakage occlusion site", "assay": "histopathology assessment (H&E) of the bile leakage occlusion site", "type": "in vivo, porcine", "details": "gallbladder fixed in formalin after occlusion with 2.5% w/v RADA16", "procedure": "as §1\nAfter bile leakage occlusion was achieved, the gallbladder was fixed in formalin and the H&E-stained pathological specimen was made at the bile leakage occlusion site."}}, "data": [{"substance": "Arg-Ala-Asp-Ala-Arg-Ala-Asp-Ala-Arg-Ala-Asp-Ala-Arg-Ala-Asp-Ala (RADARADARADARADA) [RADA16, self-assembling peptide; 1 and 2.5 w/v percent aqueous solutions available as PuraMatrix peptide hydrogel by 3-D Matrix]", "values": [{"measurement": "volume of peptide solution used to achieve the bile leakage occlusion of the needle puncture", "setting": "[1]; 20G needle puncture in the gallbladder, porcine model", "value": 0.5, "unit": "mL"}, {"measurement": "secondary bile leakage after excess hydrogel was irrigated from the site", "setting": "[1]; checked at 3 minutes, porcine gall bladder puncture", "value": "absence of a secondary bile leakage was confirmed"}, {"measurement": "histopathological finding at bile leakage occlusion site (H&E-stained specimen, FIG. 2)", "setting": "[2]", "value": "occluded the bile leakage site"}]}]}
